Blank lines part the entries; values can stand above or below the compound they belong to.
Tests used:
[1] = biological target: T1, 5-hydroxytryptamine receptor 1D (Homo sapiens, UniProt P28221); assay: Inhibition of [3H]5-HT binding to human 5-hydroxytryptamine 1D receptor expressed in CHO cells at 1 uM; type: cell-based
[2] = biological target: T1, 5-hydroxytryptamine receptor 1D; assay: Displacement of [3H]5-HT from human 5-hydroxytryptamine 1D receptor expressed in Chinese hamster ovary cells (CHO cells); type: cell-based
[3] = biological target: T1, 5-hydroxytryptamine receptor 1D; assay: Selectivity of compound to human 5-HT1D receptor to that of human 5-HT1B receptor
[4] = biological target: Muscarinic acetylcholine receptors; M1 & M2 (Homo sapiens) (UniProt P11229+P08172); assay: Inhibition of binding towards muscarinic (M1+M2) receptor at 100 nM concentration; type: protein assay
[5] = biological target: T1, 5-hydroxytryptamine receptor 1D; assay: Ability to inhibit forskolin-stimulated adenylate cyclase activity in Chinese hamster ovary (CHO) stable cell lines expressing human 5-hydroxytryptamine 1D receptor; type: functional
[6] = Compound distribution in rat tissues was determined; type: ADME, organism-based; details: in vivo
[7] = biological target: T1, 5-hydroxytryptamine receptor 1D; assay: Inhibition of binding towards 5-hydroxytryptamine 1D receptor at 100 nM concentration
[8] = biological target: 5-hydroxytryptamine receptor 7 (Homo sapiens) (UniProt P34969); assay: Inhibition of binding towards 5-hydroxytryptamine 7 receptor at 100 nM concentration
5-hydroxytryptamine receptor 7 (Homo sapiens), sequence (P34969 whole entry): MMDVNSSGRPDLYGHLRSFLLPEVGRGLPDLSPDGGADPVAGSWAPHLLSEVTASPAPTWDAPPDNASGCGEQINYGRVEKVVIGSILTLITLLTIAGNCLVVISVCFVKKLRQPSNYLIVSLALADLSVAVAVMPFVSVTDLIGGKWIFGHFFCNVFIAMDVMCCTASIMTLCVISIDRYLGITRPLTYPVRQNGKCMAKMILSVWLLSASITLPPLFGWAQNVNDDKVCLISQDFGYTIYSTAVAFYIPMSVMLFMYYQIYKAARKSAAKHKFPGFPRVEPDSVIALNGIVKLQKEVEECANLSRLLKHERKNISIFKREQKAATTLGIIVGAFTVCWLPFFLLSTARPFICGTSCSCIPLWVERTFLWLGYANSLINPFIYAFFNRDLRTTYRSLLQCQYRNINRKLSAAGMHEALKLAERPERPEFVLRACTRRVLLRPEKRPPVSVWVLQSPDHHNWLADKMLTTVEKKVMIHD

[9] = Oral bioavailability in rat; type: ADME, organism-based; details: in vivo
[10] = biological target: T2, 5-hydroxytryptamine receptor 2C (Homo sapiens) (UniProt P28335); assay: Inhibition of binding towards 5-hydroxytryptamine 2C receptor at 100 nM concentration
T2 sequence (whole entry): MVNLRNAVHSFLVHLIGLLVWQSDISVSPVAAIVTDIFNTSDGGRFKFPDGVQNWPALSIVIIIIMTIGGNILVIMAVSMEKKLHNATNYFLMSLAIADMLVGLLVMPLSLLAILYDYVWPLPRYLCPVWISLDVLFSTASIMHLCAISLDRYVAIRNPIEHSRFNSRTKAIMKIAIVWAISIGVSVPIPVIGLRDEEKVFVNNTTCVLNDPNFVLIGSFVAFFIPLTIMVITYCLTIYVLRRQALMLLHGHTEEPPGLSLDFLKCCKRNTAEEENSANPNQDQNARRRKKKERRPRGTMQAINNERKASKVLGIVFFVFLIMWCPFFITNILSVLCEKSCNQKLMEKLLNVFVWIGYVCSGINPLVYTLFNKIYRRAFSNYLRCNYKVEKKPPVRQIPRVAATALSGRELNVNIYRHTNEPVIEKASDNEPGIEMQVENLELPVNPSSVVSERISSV

[11] = biological target: D(1B) dopamine receptor (Homo sapiens) (UniProt P21918); assay: Inhibition of binding towards dopamine 5 receptor at 100 nM concentration
D(1B) dopamine receptor (Homo sapiens), sequence (P21918 whole entry): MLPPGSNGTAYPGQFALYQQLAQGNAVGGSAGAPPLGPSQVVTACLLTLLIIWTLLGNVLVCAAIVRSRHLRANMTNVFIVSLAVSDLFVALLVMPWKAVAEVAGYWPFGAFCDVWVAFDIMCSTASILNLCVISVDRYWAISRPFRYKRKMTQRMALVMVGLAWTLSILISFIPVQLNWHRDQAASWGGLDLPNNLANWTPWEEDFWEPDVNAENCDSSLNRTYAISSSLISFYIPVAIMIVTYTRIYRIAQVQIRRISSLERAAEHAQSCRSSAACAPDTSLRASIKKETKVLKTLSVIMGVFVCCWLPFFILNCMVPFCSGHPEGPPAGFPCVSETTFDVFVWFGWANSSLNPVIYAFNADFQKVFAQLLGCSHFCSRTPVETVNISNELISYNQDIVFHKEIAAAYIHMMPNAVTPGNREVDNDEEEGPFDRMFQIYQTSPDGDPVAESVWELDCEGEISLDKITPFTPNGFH

[12] = biological target: D(2) dopamine receptor (Homo sapiens) (UniProt P14416); assay: Inhibition of binding towards dopamine 2 receptor at 100 nM concentration
D(2) dopamine receptor (Homo sapiens), sequence (P14416 whole entry): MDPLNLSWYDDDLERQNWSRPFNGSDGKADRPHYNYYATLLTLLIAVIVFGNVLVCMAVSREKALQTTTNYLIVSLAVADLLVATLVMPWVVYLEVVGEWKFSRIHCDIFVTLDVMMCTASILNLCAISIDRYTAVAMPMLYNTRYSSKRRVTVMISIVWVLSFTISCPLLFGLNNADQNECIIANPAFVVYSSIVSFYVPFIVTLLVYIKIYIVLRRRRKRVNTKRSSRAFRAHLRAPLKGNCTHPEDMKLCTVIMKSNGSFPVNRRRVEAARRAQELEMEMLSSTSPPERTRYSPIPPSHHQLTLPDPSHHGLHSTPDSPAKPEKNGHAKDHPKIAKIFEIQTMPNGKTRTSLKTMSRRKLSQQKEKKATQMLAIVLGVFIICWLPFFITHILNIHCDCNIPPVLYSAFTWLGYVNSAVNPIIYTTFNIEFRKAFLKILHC

[13] = Plasma clearance was determined in rat; type: ADME, organism-based
[14] = biological target: D(3) dopamine receptor (Homo sapiens) (UniProt P35462); assay: Inhibition of binding towards dopamine 3 receptor at 100 nM concentration
D(3) dopamine receptor (Homo sapiens), sequence (P35462 whole entry): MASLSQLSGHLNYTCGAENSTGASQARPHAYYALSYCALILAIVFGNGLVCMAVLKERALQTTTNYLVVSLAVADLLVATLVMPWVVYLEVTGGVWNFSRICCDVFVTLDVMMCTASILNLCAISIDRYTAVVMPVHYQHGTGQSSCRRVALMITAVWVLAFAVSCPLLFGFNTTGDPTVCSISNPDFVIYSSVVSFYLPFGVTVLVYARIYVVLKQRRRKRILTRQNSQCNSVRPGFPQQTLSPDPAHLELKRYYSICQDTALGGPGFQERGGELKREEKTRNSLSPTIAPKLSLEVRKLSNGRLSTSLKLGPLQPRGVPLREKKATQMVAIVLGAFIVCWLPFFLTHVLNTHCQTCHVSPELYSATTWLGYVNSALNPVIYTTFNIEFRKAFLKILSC

[15] = Cmax in rat; type: ADME, organism-based; details: in vivo
[16] = species: Homo sapiens; assay: In vitro metabolic stability of compound after 30 min incubation in the presence of human liver microsomes; type: functional
[17] = biological target: T3, 5-hydroxytryptamine receptor 1A (Homo sapiens) (UniProt P08908); assay: Inhibition of binding towards 5-hydroxytryptamine 1A receptor at 100 nM concentration
T3 sequence (whole entry): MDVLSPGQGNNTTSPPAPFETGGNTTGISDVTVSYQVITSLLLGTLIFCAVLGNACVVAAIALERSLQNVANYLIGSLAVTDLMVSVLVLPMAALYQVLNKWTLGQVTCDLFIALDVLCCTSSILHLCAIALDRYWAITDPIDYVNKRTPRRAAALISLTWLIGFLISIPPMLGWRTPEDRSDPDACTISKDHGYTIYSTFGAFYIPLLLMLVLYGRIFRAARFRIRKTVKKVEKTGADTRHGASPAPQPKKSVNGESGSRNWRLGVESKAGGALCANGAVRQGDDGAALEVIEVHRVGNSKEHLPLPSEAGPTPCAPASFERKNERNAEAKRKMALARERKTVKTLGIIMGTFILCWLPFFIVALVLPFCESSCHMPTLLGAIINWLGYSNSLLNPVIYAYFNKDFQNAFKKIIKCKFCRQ

[18] = biological target: D(1A) dopamine receptor (Homo sapiens) (UniProt P21728); assay: Inhibition of binding towards dopamine 1 receptor at 100 nM concentration
D(1A) dopamine receptor (Homo sapiens), sequence (P21728 whole entry): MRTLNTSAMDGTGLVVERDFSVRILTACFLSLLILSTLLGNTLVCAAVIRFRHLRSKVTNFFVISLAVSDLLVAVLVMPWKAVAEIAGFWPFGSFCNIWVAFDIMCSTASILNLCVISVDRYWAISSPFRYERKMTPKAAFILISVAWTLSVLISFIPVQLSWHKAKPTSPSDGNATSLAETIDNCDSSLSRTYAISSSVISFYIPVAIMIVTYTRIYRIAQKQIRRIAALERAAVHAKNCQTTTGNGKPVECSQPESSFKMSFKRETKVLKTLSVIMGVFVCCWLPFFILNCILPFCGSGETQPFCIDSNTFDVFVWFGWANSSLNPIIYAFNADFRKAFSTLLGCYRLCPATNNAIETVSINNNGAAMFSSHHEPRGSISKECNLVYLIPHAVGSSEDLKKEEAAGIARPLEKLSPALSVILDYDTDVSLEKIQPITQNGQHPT

[19] = biological target: Adrenergic receptor alpha-1 (Homo sapiens) (UniProt P35348+P25100+P35368); assay: Inhibition of binding towards Alpha-1 adrenergic receptor at 100 nM concentration; type: protein assay
[20] = biological target: 5-hydroxytryptamine receptor 6 (Homo sapiens) (UniProt P50406); assay: Inhibition of binding towards 5-hydroxytryptamine 6 receptor at 100 nM concentration
5-hydroxytryptamine receptor 6 (Homo sapiens), sequence (P50406 whole entry): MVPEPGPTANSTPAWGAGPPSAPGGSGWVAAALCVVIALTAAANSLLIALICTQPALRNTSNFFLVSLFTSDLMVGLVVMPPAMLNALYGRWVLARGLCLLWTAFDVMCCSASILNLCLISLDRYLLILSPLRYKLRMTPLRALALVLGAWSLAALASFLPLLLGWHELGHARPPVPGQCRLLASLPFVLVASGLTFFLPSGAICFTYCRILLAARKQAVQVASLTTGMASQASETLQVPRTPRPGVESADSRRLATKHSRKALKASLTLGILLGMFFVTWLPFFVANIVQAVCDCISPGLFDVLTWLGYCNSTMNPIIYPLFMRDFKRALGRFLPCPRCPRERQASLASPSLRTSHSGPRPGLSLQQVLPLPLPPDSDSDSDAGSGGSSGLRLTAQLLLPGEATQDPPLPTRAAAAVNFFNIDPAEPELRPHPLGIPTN

[21] = biological target: 5-hydroxytryptamine receptor 2A (Homo sapiens) (UniProt P28223); assay: Inhibition of binding towards 5-hydroxytryptamine 2A receptor at 100 nM concentration
5-hydroxytryptamine receptor 2A (Homo sapiens), sequence (P28223 whole entry): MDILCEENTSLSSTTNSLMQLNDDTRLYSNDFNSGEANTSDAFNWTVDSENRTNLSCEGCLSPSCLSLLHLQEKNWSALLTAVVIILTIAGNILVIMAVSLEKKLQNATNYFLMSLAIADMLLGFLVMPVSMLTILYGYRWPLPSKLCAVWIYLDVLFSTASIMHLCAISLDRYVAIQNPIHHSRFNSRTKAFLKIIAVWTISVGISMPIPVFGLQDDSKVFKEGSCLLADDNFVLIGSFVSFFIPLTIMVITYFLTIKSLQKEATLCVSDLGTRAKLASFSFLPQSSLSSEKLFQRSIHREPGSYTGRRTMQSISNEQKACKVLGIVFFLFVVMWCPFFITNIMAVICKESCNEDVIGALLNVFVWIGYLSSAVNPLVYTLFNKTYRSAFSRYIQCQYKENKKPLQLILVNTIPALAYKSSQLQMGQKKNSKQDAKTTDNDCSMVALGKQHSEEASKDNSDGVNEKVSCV

[22] = Half period in rat after intravenous administration; type: ADME, organism-based; details: in vivo
[23] = species: Rattus norvegicus; assay: In vitro metabolic stability of compound after 30 min incubation in the presence of rat liver microsomes; type: functional
[24] = biological target: 5-hydroxytryptamine receptor 1B (Homo sapiens) (UniProt P28222); assay: Inhibition of binding towards 5-hydroxytryptamine 1B receptor at 100 nM concentration
5-hydroxytryptamine receptor 1B (Homo sapiens), sequence (P28222 whole entry): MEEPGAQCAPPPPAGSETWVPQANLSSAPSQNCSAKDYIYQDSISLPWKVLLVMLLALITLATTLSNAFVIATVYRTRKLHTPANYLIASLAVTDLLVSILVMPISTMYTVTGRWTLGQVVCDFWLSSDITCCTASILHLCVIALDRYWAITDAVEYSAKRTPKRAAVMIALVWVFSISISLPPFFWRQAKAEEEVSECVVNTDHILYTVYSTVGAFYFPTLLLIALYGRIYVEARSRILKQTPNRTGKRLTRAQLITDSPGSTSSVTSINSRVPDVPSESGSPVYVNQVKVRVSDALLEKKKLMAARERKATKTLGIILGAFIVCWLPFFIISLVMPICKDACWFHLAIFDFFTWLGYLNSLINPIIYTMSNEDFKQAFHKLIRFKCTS

[25] = test system: Rattus norvegicus; assay: Area under curve was determined after peroral administration in rat; type: ADME, organism-based; details: in vivo, po
[26] = biological target: T4, D(4) dopamine receptor (Homo sapiens) (UniProt P21917); assay: Inhibition of binding towards dopamine 4 receptor at 100 nM concentration
T4 sequence (whole entry): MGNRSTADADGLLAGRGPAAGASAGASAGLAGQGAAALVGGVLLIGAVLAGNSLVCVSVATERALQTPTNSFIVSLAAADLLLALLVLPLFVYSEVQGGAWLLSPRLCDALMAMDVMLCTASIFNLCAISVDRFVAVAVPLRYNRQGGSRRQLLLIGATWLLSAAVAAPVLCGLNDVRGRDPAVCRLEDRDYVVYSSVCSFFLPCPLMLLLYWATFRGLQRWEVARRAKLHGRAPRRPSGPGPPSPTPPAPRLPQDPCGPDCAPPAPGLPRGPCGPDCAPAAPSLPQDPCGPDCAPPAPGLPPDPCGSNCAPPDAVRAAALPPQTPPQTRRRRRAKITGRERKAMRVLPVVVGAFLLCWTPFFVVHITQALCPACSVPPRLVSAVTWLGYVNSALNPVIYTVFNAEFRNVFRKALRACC

T1 sequence (P28221 whole entry): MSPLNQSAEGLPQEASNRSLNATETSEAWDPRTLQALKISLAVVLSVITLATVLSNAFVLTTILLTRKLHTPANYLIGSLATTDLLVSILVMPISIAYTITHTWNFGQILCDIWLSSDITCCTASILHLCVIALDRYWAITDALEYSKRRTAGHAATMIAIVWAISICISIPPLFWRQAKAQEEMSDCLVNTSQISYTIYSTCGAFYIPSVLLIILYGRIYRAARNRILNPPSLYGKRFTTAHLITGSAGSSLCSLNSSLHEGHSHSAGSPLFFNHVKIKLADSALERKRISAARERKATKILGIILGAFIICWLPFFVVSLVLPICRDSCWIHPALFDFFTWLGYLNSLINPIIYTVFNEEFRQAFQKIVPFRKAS

SMILES: CN(C)CCn1ccc2ccc(-c3ccsc3)cc21
Ki [2]: 7.3 nM
inhibition [1]: 99%
Selectivity [3]: 22

SMILES: CNC(=O)c1ccc2c(c1)CCO[C@H]2CCN1CCN(c2ccc(C(N)=O)cc2)CC1
Ki [2]: 4.6 nM

SMILES: CN(C)CCn1ccc2ccc(C3(O)CCSCC3)cc21
inhibition [4]: 0%
EC50 [5]: 0.3 nM
Ki [2]: 2 nM
Vd [6]: 8.61 L/kg
inhibition [7]: 96%
inhibition [8]: 5%
bioavailability [9]: 51.1%
inhibition [10]: 4%
inhibition [11]: 1%
inhibition [1]: 99%
inhibition [12]: 0%
clearance [13]: 74 mL/min/kg
inhibition [14]: 0%
Cmax [15]: 538 ng/mL
Remaining [16]: 70%
inhibition [17]: 27%
inhibition [18]: 0%
inhibition [19]: 1%
inhibition [20]: 0%
inhibition [21]: 0%
half-life [22]: 1.5 h
Remaining [23]: 79%
Selectivity [3]: 57
inhibition [24]: 46%
AUC [25]: 21265 ng·mL/kg
inhibition [26]: 2%

SMILES: CN(C)CCn1ccc2ccc(-c3ccc4ccccc4c3)cc21
Ki [2]: 57 nM
inhibition [1]: 79%
Selectivity [3]: 5.5

SMILES: CN(C)CCn1ccc2ccc(-c3ccc(C(F)(F)F)cc3)cc21
inhibition [1]: 86%

SMILES: CN(C)CCn1ccc2ccc(-c3cccnc3)cc21
Ki [2]: 1.4 nM
inhibition [1]: 98%
Selectivity [3]: 17

SMILES: CN(C)CCn1ccc2ccc(C3=CCN(C)CC3)cc21
inhibition [1]: 84%

SMILES: CN(C)CCn1ccc2ccc(C3=CCOCC3)cc21
Ki [2]: 32 nM
Selectivity [3]: 28

SMILES: OC[C@H](NC1CCN(CCCc2c[nH]c3ccc(-n4cnnc4)cc23)CC1)c1ccc(F)cc1
Ki [2]: 0.9 nM

Other lines, results leading:

inhibition [1]: 74%
SMILES: CN(C)CCn1ccc2ccc(C3CCN(C)CC3)cc21

inhibition [1]: 85%
SMILES: CN(C)CCn1ccc2ccc(N3CCOCC3)cc21

Ki [2]: 22 nM
inhibition [1]: 95%
Selectivity [3]: 7.4
SMILES: CN(C)CCn1ccc2ccc(C3=CCSCC3)cc21

Ki [2]: 3.7 nM
SMILES: CN(C)CCn1ccc2ccc(C3CCOCC3)cc21

inhibition [1]: 44%
SMILES: CN(C)CCn1ccc2ccc(C3(O)CCN(C)CC3)cc21

Ki [2]: 3.4 nM
Selectivity [3]: 48
SMILES: CN(C)CCn1ccc2ccc(C3(O)CCOCC3)cc21

inhibition [1]: 88%
SMILES: CN(C)CCn1ccc2ccc(N3CCSCC3)cc21

Ki [2]: 5.6 nM
inhibition [1]: 99%
Selectivity [3]: 48
SMILES: CN(C)CCn1ccc2ccc(C3CCSCC3)cc21

From ChEMBL document CHEMBL1145755, “Design, synthesis and biological activity of novel dimethyl-[2-[6-substituted-indol-1-yl]-ethyl]-amine as potent, selective, and orally-bioavailable 5-HT(1D) agonists” (Bioorg Med Chem Lett, 2003)
